Results published in patent US9926281B2 (priority 2014, dated 2018).

Tests used:
[1] = molecular target: human TACE (Homo sapiens (Human), UniProt P78536); conditions: read-out: TACE potency IC50
[2] = molecular target: human ADAMTS-5 (Homo sapiens (Human), UniProt Q9UNA0); conditions: read-out: hADAMTS-5 potency IC50
human ADAMTS-5, sequence (Q9UNA0 262-930): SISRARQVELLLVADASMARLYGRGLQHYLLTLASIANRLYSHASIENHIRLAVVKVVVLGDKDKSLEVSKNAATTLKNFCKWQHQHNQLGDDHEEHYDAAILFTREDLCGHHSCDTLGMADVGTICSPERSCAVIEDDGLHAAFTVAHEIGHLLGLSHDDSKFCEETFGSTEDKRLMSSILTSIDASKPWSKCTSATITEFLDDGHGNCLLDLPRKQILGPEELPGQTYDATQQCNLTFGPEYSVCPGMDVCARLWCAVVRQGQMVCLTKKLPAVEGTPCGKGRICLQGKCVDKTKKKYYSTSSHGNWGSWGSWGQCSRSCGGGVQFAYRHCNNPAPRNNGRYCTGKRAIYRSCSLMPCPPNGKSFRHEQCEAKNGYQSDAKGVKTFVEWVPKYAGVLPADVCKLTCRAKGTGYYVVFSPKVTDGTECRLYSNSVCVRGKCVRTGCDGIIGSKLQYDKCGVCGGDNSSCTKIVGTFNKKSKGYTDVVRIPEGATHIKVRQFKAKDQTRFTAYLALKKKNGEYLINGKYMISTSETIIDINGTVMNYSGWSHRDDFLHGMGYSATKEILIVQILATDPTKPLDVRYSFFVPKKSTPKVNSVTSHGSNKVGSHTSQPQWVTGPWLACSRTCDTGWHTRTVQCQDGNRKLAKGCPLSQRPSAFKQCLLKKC
Method: Finally, the fluorescence is read on the Envision (Perkin Elmer) after an incubation of 90 min at 37° C.

human TACE, sequence (P78536 whole entry, looked up, change not shown): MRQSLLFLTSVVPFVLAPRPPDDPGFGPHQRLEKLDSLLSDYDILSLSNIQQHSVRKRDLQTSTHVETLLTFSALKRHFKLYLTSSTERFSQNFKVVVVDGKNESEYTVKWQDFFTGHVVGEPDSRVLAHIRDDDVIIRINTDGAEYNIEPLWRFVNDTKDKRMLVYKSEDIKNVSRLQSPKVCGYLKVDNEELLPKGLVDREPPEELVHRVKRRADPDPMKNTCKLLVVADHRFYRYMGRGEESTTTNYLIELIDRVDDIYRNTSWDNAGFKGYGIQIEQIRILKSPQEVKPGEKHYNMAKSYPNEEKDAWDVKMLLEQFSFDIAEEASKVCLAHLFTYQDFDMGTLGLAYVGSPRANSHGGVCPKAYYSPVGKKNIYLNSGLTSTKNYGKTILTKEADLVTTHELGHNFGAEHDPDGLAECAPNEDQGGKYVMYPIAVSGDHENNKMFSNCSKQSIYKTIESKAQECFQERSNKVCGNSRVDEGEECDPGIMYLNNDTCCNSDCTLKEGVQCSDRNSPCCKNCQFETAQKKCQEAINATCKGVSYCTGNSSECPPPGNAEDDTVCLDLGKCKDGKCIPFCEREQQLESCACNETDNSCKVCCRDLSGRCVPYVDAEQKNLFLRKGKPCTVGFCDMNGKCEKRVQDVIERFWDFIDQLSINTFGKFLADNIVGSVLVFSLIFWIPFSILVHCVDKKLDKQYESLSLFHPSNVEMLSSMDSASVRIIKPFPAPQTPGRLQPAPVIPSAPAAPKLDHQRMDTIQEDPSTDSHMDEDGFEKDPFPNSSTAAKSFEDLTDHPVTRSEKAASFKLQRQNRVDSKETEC

Compound | IC50 [1] | IC50 [2]
Cc1ccc(C2(CCC(=O)N3CCN(c4cc(F)cc(F)c4)[C@@H](C)C3)NC(=O)NC2=O)cn1 (stereo partly drawn) [compound 386, 5-[3-[(3S)-4-(3,5-difluorophenyl)-3-methyl-piperazin-1-yl]-3-oxo-propyl]-5-(6-methyl-3-pyridyl)imidazolidine-2,4-dione] | > 4000 nM | 48 nM
Cc1cc(C2(CCC(=O)N3CCN(c4cc(F)cc(F)c4)[C@@H](C)C3)NC(=O)NC2=O)no1 (stereo partly drawn) [compound 387, 5-[3-[(3S)-4-(3,5-difluorophenyl)-3-methyl-piperazin-1-yl]-3-oxo-propyl]-5-(5-methylisoxazol-3-yl)imidazolidine-2,4-dione] | > 4000 nM | 37 nM
CNc1cc(N2CCN(C(=O)CC[C@@]3(C)NC(=O)NC3=O)C[C@@H]2C)ccc1Cl [compound 392, (5R)-5-[3-[(3S)-4-[4-chloro-3-(methylamino)phenyl]-3-methyl-piperazin-1-yl]-3-oxo-propyl]-5-methyl-imidazolidine-2,4-dione] | > 20000 nM | 567 nM
C[C@H]1CN(C(=O)CCC2(c3ccn(C)n3)NC(=O)NC2=O)CCN1c1cc(F)cc(F)c1 (stereo partly drawn) [compound 394, 5-[3-[(3S)-4-(3,5-difluorophenyl)-3-methyl-piperazin-1-yl]-3-oxo-propyl]-5-(1-methylpyrazol-3-yl)imidazolidine-2,4-dione] | > 20000 nM | 49 nM
Cc1nc(C2(CCC(=O)N3CCN(c4cc(F)cc(F)c4)[C@@H](C)C3)NC(=O)NC2=O)co1 (stereo partly drawn) [compound 395, 5-[3-[(3S)-4-(3,5-difluorophenyl)-3-methyl-piperazin-1-yl]-3-oxo-propyl]-5-(2-methyloxazol-4-yl)imidazolidine-2,4-dione] | > 20000 nM | 39 nM
Cc1cc(N2CCN(C(=O)CC[C@@]3(C)NC(=O)NC3=O)C[C@@H]2C)cc(C)c1Cl [compound 400, (5R)-5-[3-[(3S)-4-(4-chloro-3,5-dimethyl-phenyl)-3-methyl-piperazin-1-yl]-3-oxo-propyl]-5-methyl-imidazolidine-2,4-dione] | 2930 nM | 383 nM
CC(CC1NC(=O)NC1=O)C(=O)N1CCN(c2ccc(F)c(Cl)c2)[C@@H](C)C1 (stereo partly drawn) [compound 441, 5-(3-((S)-4-(3-chloro-4-fluorophenyl)-3-methylpiperazin-1-yl)-2-methyl-3-oxopropyl)imidazolidine-2,4-dione] | > 20000 nM | 59 nM
CC(CC1(c2ccccn2)NC(=O)NC1=O)C(=O)N1CCN(c2cc(Cl)cc(Cl)c2)[C@@H](C)C1 (stereo partly drawn) [compound 442, 5-(3-((S)-4-(3,5-dichlorophenyl)-3-methylpiperazin-1-yl)-2-methyl-3-oxopropyl)-5-(pyridin-2-yl)imidazolidine-2,4-dione] | 789 nM | 24 nM
CCC1(CC(C)C(=O)N2CCN(c3ccc(F)c(Cl)c3)[C@@H](C)C2)NC(=O)NC1=O (stereo partly drawn) [compound 444, 5-(3-((S)-4-(3-chloro-4-fluorophenyl)-3-methylpiperazin-1-yl)-2-methyl-3-oxopropyl)-5-ethylimidazolidine-2,4-dione] | > 4000 nM | 25 nM
CC(CC1(c2ccccn2)NC(=O)NC1=O)C(=O)N1CCN(c2cccc(Cl)c2)[C@@H](C)C1 (stereo partly drawn) [compound 446, 5-(3-((S)-4-(3-chlorophenyl)-3-methylpiperazin-1-yl)-2-methyl-3-oxopropyl)-5-(pyridin-2-yl)imidazolidine-2,4-dione] | 840 nM | 19 nM
Cc1cccc(C2(CCC(=O)N3CCN(c4ccc(F)c(Cl)c4)[C@@H](C)C3)NC(=O)NC2=O)n1 (stereo partly drawn) [compound 447, 5-[3-[(3S)-4-(3-chloro-4-fluoro-phenyl)-3-methyl-piperazin-1-yl]-3-oxo-propyl]-5-(6-methyl-2-pyridyl)imidazolidine-2,4-dione] | 3620 nM | 56 nM
COCC1(CC(C)C(=O)N2CCN(c3cc(F)c(Cl)c(F)c3)CC2)NC(=O)NC1=O (stereo not drawn) [compound 448] | 2990 nM | 19 nM
